Patent publication US5859027A, “Antimicrobial agent” (ChekTec Corporation, priority 1997, dated 1999)
≈ marks a conversion by molar mass, not a printed value. Read-outs that look alike come from different tables or passages of the source.

Assays:
Fungal cells = assay: Disk diffusion assay for antimicrobial activity (Example 2), zone of growth inhibition; type: cell-based; details: for zone of growth inhibition, diameter / zone of inhibition at 100 µg/disc: 37° C., 24 hours; for zone of inhibition at 100 µg/disc: 100 μg per 6 mm disk, read-out: zone of growth inhibition, diameter
Method: (§1) Fungal cells were grown overnight from a single colony in 2-5 ml Sabouraud Dextrose Broth at 37° C. 1-5×10^6 were spread onto Sabouraud Dextrose Agar plates (Difco, Detroit, Mich.). Sterile 6 mm filter disks were evenly spaced with at least about 22 mm separation on the plates. To each disk, 100 μg of a compound to be tested was applied in 5-10 μl DMSO. On each plate, two disks containing 2.5 and 10 μg, respectively, of Amphotericin B (Sigma) and two disks containing 2.5 and 10 μg, respectively, of cerulenin (Sigma) were used as positive controls. A disk containing only DMSO served as the negative control. The plates were incubated at 37° C. for 24 hours and the zone of growth inhibition about each disk was visually examined and measured. Compound A and compound B typically produced clear zones of 8-12 mm diameter. Amphotericin B typically produced a clear zone of 8-10 mm diameter. Cerulenin typically produced a hazy zone of 20-25 mm diameter. A clear zone is indicative of fungicidal activity, while a hazy zone is indicative of fungistatic activity.

[1] = tested on: C. albicans strain ATCC 10231; assay: Murine systemic model of candidiasis; type: in vivo, mice; details: for % Survival: after nine days
Method: (§2) In vivo activity was determined using a murine systemic model of candidiasis. Groups of 5 to 10 mice were inoculated IV with 1-2×10^7 cells of C. albicans strain ATCC 10231 (10 times the lethal dose). One hour after inoculation, the candidate antifungal compounds were delivered IP. 10 mg/kg of compound A was injected into each mouse of the compound A treatment group. Two separate treatment groups received 30 and 100 mg/kg, respectively, of compound B. Amphotericin B was injected into a positive control treatment group at 10 mg/kg. All compounds were delivered in phosphate-buffered saline (PBS) and one treatment group received PBS. Twice daily thereafter the mice were observed, the number of dead mice recorded, and the dead mice removed. After nine days, the total mortality over the period was determined.

[2] = target: T1, FAS of C. Albicans strain 4918 (Candida albicans, UniProt P34731+P43098); assay: FAS activity in extracts of treated C. Albicans cultures (Example 10); type: cell-based; details: for remaining activity at 10 µg/mL / remaining activity at 25 µg/mL: read-out: Percent Remaining FAS Activity
T1 construct: endogenous in cells; host or cells: Candida albicans strain 4918 (from Dr. Ronald Cihlar, Georgetown University Medical Center)
Method: C. Albicans strain 4918 (available from Dr. Ronald Cihlar, Georgetown University Medical Center, Washington, D.C.) was grown in minimal medium (M63 media available from Difco, Detroit, Mich.) at 37° C. to mid-log phase. 10 μg/ml cerulenin and 25 μg/ml of compound B were added to separate cultures. At 15 minute intervals, 20 ml samples were removed and extracts prepared by mechanical extraction as in Example 1C, except that the ammonium sulfate precipitation step was not applied. The extract was diluted to 1 ml to form a solution containing 0.4M potassium phosphate, pH 7.3, 0.125 μM dithiothreitol, 50 μM acetyl-CoA, 100 μM NADPH. After incubation at 37° C. for 5 minutes, 100 μM malonyl-CoA containing 0.5 μCi [2-^14 C]-malonyl-CoA (Amersham, Arlington Heights, Ill.). After 10 minutes at 37° C., the fatty acid synthesis reaction was terminated by adding 30 μl of 60% perchloric acid (v/v) and 1 ml ethanol. Four volumes of pet. ether were added to each reaction incubation to extract the fatty acids. The relative incorporation of malonyl-CoA into fatty acids was determined by liquid scintillation counting.

[3] = tested on: Candida Albicans strain B311A; assay: MIC assay (Example 1B); type: cell-based; details: for MIC: Candida albicans; for activity in the MIC assay of Example 1B (in words): HPLC-purified material, strain not stated
Method: The fractions from the purification were tested for antifungal activity against C. albicans (strain B311A available from Dr. Paul Actor, Temple University and strains ATCC Nos. 10231 and 10261) and C. tropicalis (strain 13803). […] Prior to the assay for antifungal activity, the fungus to be tested for susceptibility was grown overnight from a single colony in 5 ml of medium at 30° C. This overnight culture was diluted 1:10 with fresh medium and grown at 37° C. for 4 hours. A volume of 5 μl of extracts, dissolved in DMSO, was added to each separate well in a series of 96-well plates. 4,000 fungal cells were then added to each plate in 95 μl of medium. The optical densities of the wells were measured and the plates incubated at 37° C. The optical densities were again measured after 24 and 48 hours. Minimum inhibitory concentrations ("MICs") for the extracts were determined using this procedure wherein the extracts were serially diluted in medium prior to mixing with the 4,000 fungal cells.

FAS from S. cereviseae = target: T2, FAS from S. cereviseae (Saccharomyces cerevisiae, UniProt P07149+P19097); assay: FAS inhibition assay (Example 1C); type: biochemical
T2 construct: an FAS extract from Saccharomyces cerviseae was prepared; (the yeast itself); host or cells: Fleishmans' freeze dried yeast (Saccharomyces cerevisiae); dialyzed ammonium sulfate precipitate of the lysate
Method: To test the compounds for FAS inhibitory activity, an FAS extract from Saccharomyces cerviseae was prepared. Freeze dried yeast (Fleishmans' freeze dried yeast, Specialty Brands, San Francisco, Calif.) 1 g, was hydrated in 5 mls deionized water for 15 minutes at 4° C. Subsequent extraction steps were conducted at a temperature between 4° C. and 10° C., except that in the cell lysis step the temperature may have briefly exceeded these boundaries. The cells were pelleted by centrifugation; the pelleted volume was measured; and the cells were resuspended in 5 vol. (5 mls per ml cell volume) extraction buffer [125 mM KH2PO4, pH 6.6, 1 mM EDTA, 1 mM DTT, 0.7 μg/ml pepstatin (Boehringer Mannheim, Indianapolis, Ind.), 0.2 μg/ml aprotinin (Boehringer Mannheim, Indianapolis, Ind.), 0.2 μg/ml leupeptin (Boehringer Mannheim, Indianapolis, Ind.)]. The cells were again pelleted and resuspended in 2 vol. extraction buffer. The cells were lysed using a bead mill homogenizer (Biospec Products, Bartlesville, OD) with a volume of glass beads equal to the volume of the yeast cells. The bead mill was operated five times for 1 minute, with 1 minute intervals between operations to allow the water jacket of the bead mill to cool the material in the mill. The lysate was centrifuged at 30,000×g for 30 minutes and the supernate was collected. Ammonium sulfate was added to the supernate to 50% saturation and the mixture was stirred for 30 minutes on ice. […]
105 μl of FAS extract was placed in each well of a polypropylene 96 well plate (Costar Corp. Cambridge, Mass.) and multiple 5 μl dilutions of compound A, compound B or negative control solution were introduced into each of the wells. […] The relative initial reaction rates in each well were measured by measuring the decrease in optical density at 340 nm using a UV Max microtiter plate reader (Molecular Devices, Sunnyvalle, Calif.).

[4] = tested on: Candida albicans (strains ATCC 10231 and ATCC 10261); assay: Disk diffusion assay for antimicrobial activity (Example 2); type: cell-based
Method: as §1

[5] = tested on: Candida tropicalis (strain ATCC 13803); assay: as above; type: cell-based
Method: as §1

[6] = Maximal tolerated dose in mice, IP administration; details: mouse, in vivo, read-out: maximal tolerated dose (maximum dose that caused no deaths within 72 hours)
Method: as §2
Using the same methodology, it was determined that the maximal tolerated dose in these mice (i.e., the maximum dose that caused no deaths within 72 hours following IP administration) of compound B was in excess of 200 mg/kg. The mice treated with 2108B or Amphotericin B injected IP in […] of phosphate buffered saline, pH 7.4 had the following treatment profiles: […]

[7] = positive control disks with 2.5 and 10 μg
[8] = 10 mg/kg IP one hour after inoculation
[9] = Sabouraud Dextrose Broth substituted for YNB medium

T2 sequence (P19097 whole entry): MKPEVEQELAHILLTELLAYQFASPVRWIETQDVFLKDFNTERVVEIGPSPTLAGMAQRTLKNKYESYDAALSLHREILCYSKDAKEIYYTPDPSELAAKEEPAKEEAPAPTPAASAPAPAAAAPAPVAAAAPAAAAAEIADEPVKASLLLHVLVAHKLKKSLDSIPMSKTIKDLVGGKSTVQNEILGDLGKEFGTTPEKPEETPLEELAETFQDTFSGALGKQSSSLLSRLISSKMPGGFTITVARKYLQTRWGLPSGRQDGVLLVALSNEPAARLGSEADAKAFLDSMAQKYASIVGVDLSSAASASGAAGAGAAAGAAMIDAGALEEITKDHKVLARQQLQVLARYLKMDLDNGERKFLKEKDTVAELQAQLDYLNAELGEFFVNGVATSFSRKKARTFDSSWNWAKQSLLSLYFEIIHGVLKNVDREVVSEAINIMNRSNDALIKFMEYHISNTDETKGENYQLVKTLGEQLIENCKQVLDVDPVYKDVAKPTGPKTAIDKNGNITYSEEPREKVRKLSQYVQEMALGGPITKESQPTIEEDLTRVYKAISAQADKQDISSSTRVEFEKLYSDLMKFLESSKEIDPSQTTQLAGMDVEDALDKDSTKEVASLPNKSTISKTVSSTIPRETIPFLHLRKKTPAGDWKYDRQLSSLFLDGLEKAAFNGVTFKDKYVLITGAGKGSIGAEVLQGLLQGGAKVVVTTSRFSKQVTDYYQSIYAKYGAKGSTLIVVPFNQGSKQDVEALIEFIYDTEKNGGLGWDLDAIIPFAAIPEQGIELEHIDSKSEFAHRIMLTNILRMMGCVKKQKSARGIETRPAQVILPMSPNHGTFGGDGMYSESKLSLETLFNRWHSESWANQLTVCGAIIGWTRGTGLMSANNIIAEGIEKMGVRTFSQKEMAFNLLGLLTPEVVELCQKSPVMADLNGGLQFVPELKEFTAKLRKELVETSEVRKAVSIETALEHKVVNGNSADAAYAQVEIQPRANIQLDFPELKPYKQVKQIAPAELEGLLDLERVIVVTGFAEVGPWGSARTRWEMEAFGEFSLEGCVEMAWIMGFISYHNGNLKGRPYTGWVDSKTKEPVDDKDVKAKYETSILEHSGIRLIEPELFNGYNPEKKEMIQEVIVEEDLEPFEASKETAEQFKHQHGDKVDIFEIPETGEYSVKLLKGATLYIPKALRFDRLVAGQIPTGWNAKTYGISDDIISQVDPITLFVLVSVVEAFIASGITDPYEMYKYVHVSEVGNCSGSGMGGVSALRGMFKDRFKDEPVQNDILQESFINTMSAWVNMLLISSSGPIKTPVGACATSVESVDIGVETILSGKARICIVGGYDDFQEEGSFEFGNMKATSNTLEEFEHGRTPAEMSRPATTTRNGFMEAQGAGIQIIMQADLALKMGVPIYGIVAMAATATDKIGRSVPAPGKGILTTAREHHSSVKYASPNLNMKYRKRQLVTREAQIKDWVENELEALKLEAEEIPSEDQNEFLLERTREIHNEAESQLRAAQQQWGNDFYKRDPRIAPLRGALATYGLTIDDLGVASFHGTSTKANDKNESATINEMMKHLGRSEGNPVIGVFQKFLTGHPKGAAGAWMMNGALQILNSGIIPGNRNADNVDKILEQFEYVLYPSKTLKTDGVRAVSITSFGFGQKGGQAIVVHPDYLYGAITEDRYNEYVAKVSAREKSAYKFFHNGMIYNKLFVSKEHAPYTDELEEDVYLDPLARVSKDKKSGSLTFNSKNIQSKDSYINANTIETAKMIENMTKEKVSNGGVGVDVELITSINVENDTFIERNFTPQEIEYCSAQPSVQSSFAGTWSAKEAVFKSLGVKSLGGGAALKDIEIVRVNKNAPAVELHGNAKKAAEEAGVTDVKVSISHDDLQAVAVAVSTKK
T2 sequence (P07149 whole entry): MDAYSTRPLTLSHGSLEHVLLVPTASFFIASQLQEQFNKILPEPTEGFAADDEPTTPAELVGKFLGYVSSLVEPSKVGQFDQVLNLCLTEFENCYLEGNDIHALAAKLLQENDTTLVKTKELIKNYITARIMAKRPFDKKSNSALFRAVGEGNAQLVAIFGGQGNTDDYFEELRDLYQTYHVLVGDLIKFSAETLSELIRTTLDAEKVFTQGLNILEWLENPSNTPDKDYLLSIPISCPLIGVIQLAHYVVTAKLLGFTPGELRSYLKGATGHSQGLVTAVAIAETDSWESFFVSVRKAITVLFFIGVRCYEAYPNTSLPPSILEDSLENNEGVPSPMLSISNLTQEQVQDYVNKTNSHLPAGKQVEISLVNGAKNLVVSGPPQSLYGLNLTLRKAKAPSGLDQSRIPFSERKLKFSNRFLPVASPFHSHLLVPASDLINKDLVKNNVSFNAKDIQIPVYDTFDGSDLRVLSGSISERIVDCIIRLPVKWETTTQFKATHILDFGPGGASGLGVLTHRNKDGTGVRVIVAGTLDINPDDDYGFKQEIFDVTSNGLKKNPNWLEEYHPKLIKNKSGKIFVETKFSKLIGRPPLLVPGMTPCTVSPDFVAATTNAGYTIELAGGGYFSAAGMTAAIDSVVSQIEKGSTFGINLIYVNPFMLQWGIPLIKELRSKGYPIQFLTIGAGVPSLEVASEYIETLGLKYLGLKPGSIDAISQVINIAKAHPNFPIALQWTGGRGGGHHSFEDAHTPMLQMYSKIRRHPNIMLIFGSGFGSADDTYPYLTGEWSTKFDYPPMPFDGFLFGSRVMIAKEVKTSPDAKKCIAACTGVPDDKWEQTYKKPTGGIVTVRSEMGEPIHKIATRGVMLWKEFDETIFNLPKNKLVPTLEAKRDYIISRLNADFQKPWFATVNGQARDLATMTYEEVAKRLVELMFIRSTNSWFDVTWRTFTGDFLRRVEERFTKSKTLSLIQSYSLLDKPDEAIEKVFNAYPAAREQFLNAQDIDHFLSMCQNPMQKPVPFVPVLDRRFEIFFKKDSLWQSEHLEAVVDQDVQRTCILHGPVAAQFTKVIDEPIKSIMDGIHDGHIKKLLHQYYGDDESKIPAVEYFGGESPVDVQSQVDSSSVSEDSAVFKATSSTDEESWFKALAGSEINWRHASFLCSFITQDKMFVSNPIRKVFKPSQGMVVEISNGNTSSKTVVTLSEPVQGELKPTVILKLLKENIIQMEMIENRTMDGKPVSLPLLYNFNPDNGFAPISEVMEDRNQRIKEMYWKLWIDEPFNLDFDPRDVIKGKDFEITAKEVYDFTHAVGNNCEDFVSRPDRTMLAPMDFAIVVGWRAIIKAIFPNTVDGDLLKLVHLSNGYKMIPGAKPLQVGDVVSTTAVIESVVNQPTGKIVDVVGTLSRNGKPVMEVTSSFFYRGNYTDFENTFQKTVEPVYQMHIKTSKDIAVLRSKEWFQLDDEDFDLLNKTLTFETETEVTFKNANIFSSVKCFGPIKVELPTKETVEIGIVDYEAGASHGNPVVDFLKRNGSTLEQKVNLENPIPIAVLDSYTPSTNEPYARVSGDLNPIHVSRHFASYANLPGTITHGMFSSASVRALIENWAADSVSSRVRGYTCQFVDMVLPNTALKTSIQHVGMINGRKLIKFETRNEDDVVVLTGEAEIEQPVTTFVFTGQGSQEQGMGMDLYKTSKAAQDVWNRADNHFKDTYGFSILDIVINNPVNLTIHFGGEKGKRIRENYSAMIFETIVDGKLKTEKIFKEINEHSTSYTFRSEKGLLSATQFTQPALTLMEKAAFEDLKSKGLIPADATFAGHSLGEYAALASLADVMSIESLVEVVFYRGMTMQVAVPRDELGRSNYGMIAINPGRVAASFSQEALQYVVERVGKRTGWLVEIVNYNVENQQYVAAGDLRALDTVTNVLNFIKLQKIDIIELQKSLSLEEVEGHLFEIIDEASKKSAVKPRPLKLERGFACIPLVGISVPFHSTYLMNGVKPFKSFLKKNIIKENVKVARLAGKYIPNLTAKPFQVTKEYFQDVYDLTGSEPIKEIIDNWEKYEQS

SMILES: C[C@@H]1[C@H](O)[C@@H](C)/C=C/C=C/C=C/C=C/C=C/C=C/C=C/[C@H](O[C@@H]2O[C@H](C)[C@@H](O)[C@H](N)[C@@H]2O)C[C@@H]2O[C@](O)(C[C@@H](O)C[C@@H](O)[C@H](O)CC[C@@H](O)C[C@@H](O)CC(=O)O[C@H]1C)C[C@H](O)[C@H]2C(=O)O [Amphotericin B, reference compound]
- zone appearance (clear = fungicidal, hazy = fungistatic) (Fungal cells; [7]): clear zone
- zone of growth inhibition, diameter (Fungal cells; [7]): 8-10 mm
- Deaths Each Day Post Inoculation, day 0 ([1]; 10 mg/kg IP): 0
- Deaths Each Day Post Inoculation, day 1 ([1]; 10 mg/kg IP): 0
- Deaths Each Day Post Inoculation, day 3 ([1]; 10 mg/kg IP): 0
- Deaths Each Day Post Inoculation, day 5 ([1]; 10 mg/kg IP): 0
- Deaths Each Day Post Inoculation, day 6 ([1]; 10 mg/kg IP): 0
- Deaths Each Day Post Inoculation, day 7 ([1]; 10 mg/kg IP): 0
- Deaths Each Day Post Inoculation, day 8 ([1]; 10 mg/kg IP): 0
- Deaths Each Day Post Inoculation, day 9 ([1]; 10 mg/kg IP): 0
- % Survival [1, 8]: 80%

SMILES: C/C=C/C/C=C/CCC(=O)[C@H]1O[C@H]1C(N)=O [Cerulenin, cerulenin, reference compound]
- zone appearance (clear = fungicidal, hazy = fungistatic) (Fungal cells; [7]): hazy zone
- zone of growth inhibition, diameter (Fungal cells; [7]): 20-25 mm
- remaining activity at 10 µg/mL ([2]; 0.25 h): 20%
- remaining activity at 10 µg/mL ([2]; 0.5 h): 12%

SMILES: C/C=C/C=C/C=C/C1=CC2=CC(=O)C(C)(OC(=O)CC(C)O)C(=O)C23OC3O1 (centres unmarked) [Compound A]
- MIC [3, 9]: 50 µg/mL (≈ 129 µM)
- MIC ([3]; YNB medium): 25 µg/mL (≈ 64.7 µM)
- activity in the MIC assay of Example 1B (in words) [3]: retained activity
- FAS inhibition in the in vitro enzyme inhibition assay (in words) (FAS from S. cereviseae): retained activity
- IC50 (FAS from S. cereviseae): 414 µM
- zone of inhibition at 100 µg/disc (Fungal cells): 8 to 12 mm
- zone appearance (clear = fungicidal, hazy = fungistatic) (Fungal cells; 100 μg per disk): clear zones
- antimicrobial activity (in words) [4]: had antimicrobial activity
- antimicrobial activity (in words) [5]: had antimicrobial activity
- MTD at 72 h [6]: 10 mg/kg
- Deaths Each Day Post Inoculation, day 0 ([1]; 10 mg/kg IP): 0
- Deaths Each Day Post Inoculation, day 1 ([1]; 10 mg/kg IP): 0
- Deaths Each Day Post Inoculation, day 2 ([1]; 10 mg/kg IP): 2
- Deaths Each Day Post Inoculation, day 3 ([1]; 10 mg/kg IP): 3
- Deaths Each Day Post Inoculation, day 4 ([1]; 10 mg/kg IP): 0
- Deaths Each Day Post Inoculation, day 5 ([1]; 10 mg/kg IP): 0
- Deaths Each Day Post Inoculation, day 6 ([1]; 10 mg/kg IP): 0
- Deaths Each Day Post Inoculation, day 7 ([1]; 10 mg/kg IP): 0
- Deaths Each Day Post Inoculation, day 8 ([1]; 10 mg/kg IP): 0
- Deaths Each Day Post Inoculation, day 9 ([1]; 10 mg/kg IP): 0
- % Survival [1, 8]: 0%

SMILES: C/C=C/C=C/C=C/C1=CC2=CC(=O)C(C)(OC(=O)CC(C)O)C(=O)C2=CO1 (centres unmarked) [Compound B]
- MIC [3, 9]: 50 µg/mL (≈ 135 µM)
- MIC ([3]; YNB medium): 6.25 µg/mL (≈ 16.9 µM)
- activity in the MIC assay of Example 1B (in words) [3]: retained activity
- FAS inhibition in the in vitro enzyme inhibition assay (in words) (FAS from S. cereviseae): not directly inhibitory of FAS
- zone of inhibition at 100 µg/disc (Fungal cells): 8 to 12 mm
- zone appearance (clear = fungicidal, hazy = fungistatic) (Fungal cells; 100 μg per disk): clear zones
- antimicrobial activity (in words) [4]: had antimicrobial activity
- antimicrobial activity (in words) [5]: had antimicrobial activity
- MTD at 72 h [6]: > 200 mg/kg
- Deaths Each Day Post Inoculation, day 0 ([1]; 30 mg/kg IP): 0
- Deaths Each Day Post Inoculation, day 1 ([1]; 30 mg/kg IP): 2
- Deaths Each Day Post Inoculation, day 2 ([1]; 30 mg/kg IP): 1
- Deaths Each Day Post Inoculation, day 3 ([1]; 30 mg/kg IP): 0
- Deaths Each Day Post Inoculation, day 4 ([1]; 30 mg/kg IP): 0
- Deaths Each Day Post Inoculation, day 5 ([1]; 30 mg/kg IP): 0
- Deaths Each Day Post Inoculation, day 6 ([1]; 30 mg/kg IP): 0
- Deaths Each Day Post Inoculation, day 7 ([1]; 30 mg/kg IP): 0
- Deaths Each Day Post Inoculation, day 8 ([1]; 30 mg/kg IP): 0
- Deaths Each Day Post Inoculation, day 9 ([1]; 30 mg/kg IP): 0
- % Survival ([1]; 30 mg/kg IP one hour after inoculation): 40%
- Deaths Each Day Post Inoculation, day 0 ([1]; 100 mg/kg IP): 0
- Deaths Each Day Post Inoculation, day 1 ([1]; 100 mg/kg IP): 2
- Deaths Each Day Post Inoculation, day 2 ([1]; 100 mg/kg IP): 0
- Deaths Each Day Post Inoculation, day 3 ([1]; 100 mg/kg IP): 0
- Deaths Each Day Post Inoculation, day 4 ([1]; 100 mg/kg IP): 0
- Deaths Each Day Post Inoculation, day 5 ([1]; 100 mg/kg IP): 0
- Deaths Each Day Post Inoculation, day 6 ([1]; 100 mg/kg IP): 0
- Deaths Each Day Post Inoculation, day 7 ([1]; 100 mg/kg IP): 0
- Deaths Each Day Post Inoculation, day 8 ([1]; 100 mg/kg IP): 1
- Deaths Each Day Post Inoculation, day 9 ([1]; 100 mg/kg IP): 0
- % Survival ([1]; 100 mg/kg IP one hour after inoculation): 40%
- FAS activity of cell extracts made after exposure (in words) [2]: markedly reduced FAS activity
- remaining activity at 25 µg/mL ([2]; 0.25 h): 53%
- remaining activity at 25 µg/mL ([2]; 0.5 h): 40%
- remaining activity at 25 µg/mL ([2]; 0.75 h): 35%
- remaining activity at 25 µg/mL ([2]; 1 h): 22%

SMILES: C/C=C/C=C/C=C/C1=CC2=CC(=O)C(C)(OC(=O)CC(O)CC(C)O)C(=O)C23OC3O1 (centres unmarked) [patulodin, reference compound]
- MIC ([3]; YNB medium): > 100 µg/mL
- zone of inhibition at 100 µg/disc (Fungal cells): 7 mm
